Measured values from patent US8637521B2, “Substituted piperazin-2,5-diones and their use as multifunctional bioactive compounds” (priority 2006, dated 2014).
Where “and” joins values, the source holds several entries; their conditions need not be identical. Identical values can stand only once.

How the values were obtained:
antibodies to ovalbumin [1] = experiment: Adjuvant activity with ovalbumin immunization (Example 7); type: in vivo, mice; conditions: Table 6
Procedure: Adjuvant activity was tested on 6 groups of mice. Each group consisted of 5 animals. Three immunizations were performed as follows:
• 1. Mouse Nos. 1 to 5—Complete Freund's adjuvant (CFA=control) • 2. Mouse Nos. 6 to 10—ovalbumin (OVA egg) 25 micrograms per animal+adjuvant 100 micrograms per animal • 3. Mouse Nos. 11 to 15—ovalbumin 25 micrograms per animal+CFA • 4. Mouse Nos. 16 to 20—ovalbumin 25 micrograms per animal • 5. Mouse Nos. 21 to 25—ovalbumin 25 micrograms per animal+adjuvant 1 microgram per animal • 6. Mouse Nos. 26 to 30—ovalbumin 25 micrograms per animal+adjuvant 10 micrograms per animal Second Immunization:
The same set 21 days after first immunization by injection of 12.5 micrograms of ovalbumin/mouse to mouse nos. 6 to 30.
The same set 35 days after first immunization by injection of 12.5 microgram of ovalbumin/mouse to mouse nos. 6 to 30.
On day 42, blood samples from each mouse were collected. The stimulation index of each group was compared. The stimulation index was calculated by dividing the test pooled sera dilution yielding OD=1 by the dilution of pooled sera from mice immunized without the adjuvant, yielding OD=1.

Anti-OVA antibody titers = experiment: Adjuvant activity, anti-OVA antibody titers by ELISA (Example 8); type: in vivo, Balb/c mice; conditions: for Pool: pooled sera titer
Procedure: Adjuvant activity was tested on 11 groups of Balb/c mice (obtained from Stolbovaya Breeding Station). Each group consisted of 7 animals. Three immunizations were performed as follows:
• Group 1—ovalbumin 25 micrograms per animal (Mouse Nos. 1 to 7) • Group 2—ovalbumin 25 micrograms per animal+CFA (Complete Freund's adjuvant) (Mouse Nos. 8 to 14) • Group 3—ovalbumin 25 micrograms per animal+adjuvant of compound 33a 100 micrograms per animal (Mouse Nos. 15 to 21) • Group 4—ovalbumin 25 micrograms per animal+adjuvant of compound 33a 10 micrograms per animal (Mouse Nos. […]) • Group 5—ovalbumin 25 micrograms per animal+adjuvant of compound 33a 1 microgram per animal (Mouse Nos. […]) • Group 6—ovalbumin 25 micrograms per animal+adjuvant of compound 33b 100 micrograms per animal (No. 36 to 42) • Group 7—ovalbumin 25 micrograms per animal+adjuvant of compound 33b 10 micrograms per animal (Mouse Nos. 43 to 49) • Group 8—ovalbumin 25 micrograms per animal+adjuvant of compound 33b 1 microgram per animal (Mouse Nos. 50 to 56) • Group 9—ovalbumin 25 micrograms per animal+adjuvant of compound 17 100 micrograms per animal (Mouse Nos. 57 to 63) • Group 10—ovalbumin 25 micrograms per animal+adjuvant of compound 1710 micrograms per animal (Mouse Nos. 64 to 70) • Group 11—ovalbumin 25 micrograms per animal+adjuvant of compound 171 microgram per animal (Mouse Nos. 71 to 77) Second Immunization:
The same set 14 days after first immunization by injection of 12.5 micrograms of ovalbumin/mouse to mouse nos. 1 to 77.
The same set 28 days after first immunization by injection of 12.5 micrograms of ovalbumin/mouse to mouse nos. 1 to 77.
On day 35 after first immunization, blood samples from each mouse were collected.
OVA (10 micrograms/ml) solution in 0.05 M sodium carbonate buffer (pH 9.5) was added to plate wells, 0.1 ml per well and incubated at 4° C. for 16 hours. The OVA solution was then removed and the plate was washed 4 times with PBS containing 0.05% Tween-20. Such washing was performed after each incubation stage. Serial twofold dilutions of sera (starting from 1:100 or 1:1000) were added to the wells, 0.1 ml per well and incubated at 37° C. for 1 hour followed by incubation (1 hour, 37° C.) with HRP-conjugated goat anti-mouse IgG antibodies (0.1 ml, 1 mg/ml in PBS) and then with a 0.1 mL substrate solution −0.05% H2O2 and 0.05% o-phenylene diamine in 0.05M sodium citrate buffer with a pH of 4.5. The reaction was stopped by adding 100 μl of 12.5% H2SO4. Absorbance was measured at a wavelength of 492 nm using a Multiscan Plus MKII (Flow Laboratories, Great Britain). Significant anti-protein antibody titer (for individual sera) was assessed as the serum dilution produced an absorbance value of more than 0.1 ODU and the minimum exceeds three times the control level. The antibody titer was presented and −log of dilution (FIGS. 2 and 3). The stimulation index for pooled sera was calculated by dividing the test pooled sera dilution producing OD=1 by the dilution of pooled sera from mice immunized without the adjuvant, producing OD=1. The results of the adjuvant activities of cyclo-L-Ala-L-Glu-(L-Trp-OH) (Compound 17), cyclo-L-Lys(N-acetyl-Glycosamine-N-acetyl-muramil)-L-Glu-(L-Trp-OH) (Compound 33a) and cyclo-D-Lys(N-acetyl-Glycosamine-N-acetyl-muramil)-D-Glu-(L-Trp-OH) (Compound 33b) are shown in Table 7 and the adjuvant activities of cyclo [L-Lys(Palmitoyil)-L-Glu(D-Trp-OH)] (Compound 26a) and cyclo [D-Lys(Palmitoyil)-D-Glu(D-Trp-OH)] (Compound 26b) are shown in Table 8 as well as in FIG. 4 which includes the results of the adjuvant activities of cyclo-L-Lys-L-Glu-(L-Trp-OH) (compound 19). It is noted that the peptides of compounds 26a and 26b are soluble in 0.1% NH4OH at a concentration of 1 mg per 1 to 2 ml.

[2] = Solubility of peptides in 0.1% NH4OH; type: physicochemical; conditions: for solubility when titrated with 0.1% AcOH: titrated with 0.1% AcOH to pH=8.4 to 8.5
[3] = tested on: hemopoietic precursor cells; experiment: Exogenous spleen colonies from bone marrow irradiated ex vivo with 1 Gy; type: in vivo
Procedure: In this study, the method of exogenous spleen colonies was applied. A suspension of intact bone marrow cells was irradiated ex vivo in the dose of 1 Gy. Different doses of Neogen or cyclic peptides were injected IP, 1M, subcutaneous or introduced per os to lethally irradiated recipients within an hour after the injection of irradiated bone marrow. Colonies were counted on day 8. All data in each group was the mean of three tests.

antibodies to ovalbumin [4] = experiment: Adjuvant activity with ovalbumin immunization (Example 6); type: in vivo, mice (C57B16); conditions: for Stimulation index: Table 5, ovalbumin alone = 1.00
Procedure: Adjuvant activity was tested on 5 groups of mice (C57B16). Each group consisted of 5 animals. Three immunizations were performed:
• 1. Group with Complete Freund's Adjuvant (CFA) • 2. Group with ovalbumin (OVA egg) (25 micrograms/mouse) • 3. Group with CFA+ovalbumin (25 micrograms/mouse) • 4. Group with ovalbumin (25 micrograms/mouse)+peptide 1 microgram/mouse • 5. Group with ovalbumin (25 micrograms/mouse)+peptide 10 micrograms/mouse Second Immunization:
The same set 21 days after first immunization by injection of 12.5 micrograms of ovalbumin/mouse to groups 2-5.
The same set 35 days after first immunization by injection of 12.5 micrograms of ovalbumin/mouse to groups 2-5.
On day 42, the total blood from each mouse was collected. The blood was pooled from each group of mice. The stimulation index of each group was compared. The stimulation index was calculated as a ratio between optical density (OD=1) of diluted pools of groups 3-5 to the optical density (OD=1) of diluted pools of group 2 (control with no adjuvant).

[5] = tested on: CFU-S population in the bone marrow; experiment: Spleen colony formation (CFU-S) by bone marrow cells of peptide-treated intact donor mice; type: in vivo, (CBA×C57 B1) F1 mice; conditions: Table 2, donor treated i/p
Procedure: The effect of tested substances on intact bone marrow was studied in vivo. […] Two days after administration of preparation, the mice were killed. Bone marrow suspension was prepared and injected intravenously to lethally irradiated mice. The colony forming activity was evaluated at day 8. Test animals were (CBA×C57 B1) F1 mice (30 mice per trial, average from 3 tests).

[6] = Table 8, 100 μg per animal, no adjuvant = 1
[7] = Table 8, OVA + adjuvant 1 μg per animal, one value per mouse
[8] = Table 8, OVA + adjuvant 10 μg per animal, one value per mouse
[9] = Table 8, OVA + adjuvant 100 μg per animal, one value per mouse
[10] = Table 8, 100 μg per animal, no adjuvant 3.9

SMILES | adjuvant activity (FIG. 4), doses at which active (Anti-OVA antibody titers) | soluble in 0.1% NH4OH at a concentration of [2] | solubility when titrated with 0.1% AcOH [2] | Stimulation index (Anti-OVA antibody titers; Table 8, 1 μg per animal) | Stimulation index (Anti-OVA antibody titers; Table 8, 10 μg per animal) | Stimulation index (Anti-OVA antibody titers; [6]) | Anti-protein antibody titer (Anti-OVA antibody titers; [7]) | Anti-protein antibody titer (Anti-OVA antibody titers; [8]) | Anti-protein antibody titer (Anti-OVA antibody titers; [9]) | Pool (Anti-OVA antibody titers; Table 8, 1 μg per animal) | Pool (Anti-OVA antibody titers; Table 8, 10 μg per animal) | Pool (Anti-OVA antibody titers; [10]) | other results
C[C@@H]1NC(=O)[C@H](CCC(=O)N[C@@H](Cc2c[nH]c3ccccc23)C(=O)O)NC1=O [Compound 17, cyclo-L-Ala-L-Glu-(L-Trp-OH)] | active at 1, 10 and 100 μg/kg |  |  |  |  |  |  |  |  |  |  |  | Stimulation index (antibodies to ovalbumin [1]; adjuvant 1 microgram per animal): 1.18; Stimulation index (antibodies to ovalbumin [1]; adjuvant 10 micrograms per animal): 1.74; Stimulation index (antibodies to ovalbumin [1]; adjuvant 100 micrograms per animal, ovalbumin alone = 1.0): 1.14; Anti-protein antibody titer (pooled sera) (Anti-OVA antibody titers; Table 7, 1 μg per animal): 4.8; Stimulation index (Anti-OVA antibody titers; Table 7, 1 μg per animal): 2.6; Anti-protein antibody titer (pooled sera) (Anti-OVA antibody titers; Table 7, 10 μg per animal): 4.5; Stimulation index (Anti-OVA antibody titers; Table 7, 10 μg per animal): 1.9; Anti-protein antibody titer (pooled sera) (Anti-OVA antibody titers; Table 7, 100 μg per animal, no adjuvant 4.5): 4.8; Stimulation index (Anti-OVA antibody titers; Table 7, 100 μg per animal, no adjuvant = 1): 2.3; Anti-protein antibody titer (for individual sera) (Anti-OVA antibody titers; Table 7, OVA + adjuvant 1 μg per animal, −log of dilution): 5.1 (3×) and 4.2 and 4.5 (2×) and 5.4; Anti-protein antibody titer (for individual sera) (Anti-OVA antibody titers; Table 7, OVA + adjuvant 10 μg per animal, −log of dilution): 4.8 and 4.2 and 4.1 and 4.5 (2×) and 5.4 and 3.9; Anti-protein antibody titer (for individual sera) (Anti-OVA antibody titers; Table 7, OVA + adjuvant 100 μg per animal, titer as −log of dilution, one value per mouse): 4.5 and 4.2 (3×) and 5.1 (2×) and 4.8
CCCCCCCCCCCCCCCC(=O)NCCCC[C@@H]1NC(=O)[C@H](CCC(=O)N[C@H](Cc2c[nH]c3ccccc23)C(=O)O)NC1=O [Compound 26a, cyclo [L-Lys(Palmitoyil)-L-Glu(D-Trp-OH)]] | active at 10 μg/kg | 1 mg per 1 to 2 ml | remain soluble | 2.0 | 6.5 | 3.3 | 4.8 and 5.1 (4×) and 4.5 and 4.4 | 5.5 (4×) and 5.8 and 5.7 (2×) | 4.8 (4×) and 4.4 and 5.1 and 5.4 | 4.4 | 5.7 | 5.1 | 
CCCCCCCCCCCCCCCC(=O)NCCCC[C@H]1NC(=O)[C@@H](CCC(=O)N[C@H](Cc2c[nH]c3ccccc23)C(=O)O)NC1=O [Compound 26b, cyclo [D-Lys(Palmitoyil)-D-Glu(D-Trp-OH)]] | not an active compound | 1 mg per 1 to 2 ml | remain soluble | 4.9 | 2.7 | 2.6 | 5.4 (2×) and 4.5 and 3.8 and 3.5 and 5.1 | 4.7 (3×) and 5.1 and 4.8 (2×) | 4.5 (2×) and 4.8 (3×) and 4.2 | 5.1 | 4.8 | 4.8 | 
C[C@@H]1NC(=O)[C@H](CCC(=O)N[C@@H](Cc2c[nH]c3ccccc23)C(=O)[O-])NC1=O.[Na+] [cyclo-LAla-LGlu-(LTrp-ONa), cyclo-L-Ala-L-Glu-(L-Trp-ONa)] |  |  |  |  |  |  |  |  |  |  |  |  | Colony count ([3]; 10 μg/kg IP, unirradiated 11.9 ± 0.4, 1 Gy alone 6.2 ± 0.6): 8.0 ± 0.4; % stimulation ([3]; 10 μg/kg IP, unirradiated = 100, 1 Gy alone = 0): 67.2%; % stimulation ([3]; 100 μg/kg IP): 80.7%; Colony count ([3]; 100 μg/kg IP): 9.6 ± 0.7; % stimulation ([3]; 100 μg/kg per/os): 98.3%; Colony count ([3]; 100 μg/kg per/os): 11.7 ± 0.6; Stimulation index (antibodies to ovalbumin [4]; ovalbumin + peptide 1 μg/mouse (group 4)): 1.18; Stimulation index (antibodies to ovalbumin [4]; ovalbumin + peptide 10 μg/mouse (group 5)): 1.74; increase of titers of antibodies to ovalbumin (antibodies to ovalbumin [4]; matches stimulation index 1.74 at 10 μg/mouse): 74%; % suppression [5]: 0%; Colony count CFU-8 - S per 10^5 cells M ± M ([5]; control 11.2 ± 0.4, colonies day 8): 11.7 ± 0.8 per 10^5 cells
